Test results as given in ChEMBL document CHEMBL1132632, “Conformational and quantitative structure-activity relationship study of cytotoxic 2-arylidenebenzocycloalkanones” (J Med Chem, 1999).

Tests used:
CCRF-CEM [1] = experiment: Inhibitory activity was tested against CEM cells; format: functional, cell-based; conditions: Homo sapiens
MOLT-4 [2] = experiment: Average potency against Molt4/C8cells; format: functional, Homo sapiens
P388 [3] = experiment: Average potency against P388 cells; format: functional, Mus musculus
L1210 [4] = experiment: Inhibitory activity was tested against L1210 cells; format: functional, cell-based; conditions: Mus musculus
MOLT-4 [5] = experiment: Inhibitory activity was tested against Molt4/C8 cells; format: functional, cell-based; conditions: Homo sapiens
CCRF-CEM [6] = experiment: Average potency against CEM cells; format: functional, Homo sapiens
L1210 [7] = experiment: Average potency against L1210 cells; format: functional, Mus musculus
P388 [8] = experiment: Inhibitory activity was tested against P388 cells; format: functional, cell-based; conditions: Mus musculus

Row | SMILES | IC50 (CCRF-CEM [1]) [µM] | IC50 (L1210 [4]) [µM] | IC50 (MOLT-4 [5]) [µM] | IC50 (P388 [8]) [µM] | AP (MOLT-4 [2]) [µM] | AP (P388 [3]) [µM] | AP (CCRF-CEM [6]) [µM] | AP (L1210 [7]) [µM]
1 | COc1cccc(/C=C2\Cc3ccccc3C2=O)c1 | > 500 | 217 | > 500 | > 50 | 267 | 42.9 | 155 | 127
2 | O=C1/C(=C/c2ccc([N+](=O)[O-])cc2)Cc2ccccc21 | > 500 | > 500 | > 500 | > 50 | 267 | 42.9 | 155 | 127
3 | O=C1/C(=C/c2cccc(F)c2)Cc2ccccc21 | 39.2 | 181 | 46.1 | 40 | 267 | 42.9 | 155 | 127
4 | O=C1/C(=C/c2ccccc2)CCc2ccccc21 | 7.42 | 121 | 32.4 | 30.2 | 158 | 20.9 | 115 | 135
5 | Cc1cccc(/C=C2\CCc3ccccc3C2=O)c1 | 9.41 | 73.2 | 35.8 | 16.3 | 158 | 20.9 | 115 | 135
6 | O=C1/C(=C/c2cccc(Cl)c2)CCc2ccccc21 | 9.19 | 118 | 41.8 | 16.8 | 158 | 20.9 | 115 | 135
7 | COc1cccc(/C=C2\CCc3ccccc3C2=O)c1 | 8.78 | 60.7 | 12.1 | 17.6 | 158 | 20.9 | 115 | 135
8 | Cc1ccc(/C=C2\CCc3ccccc3C2=O)cc1 | 460 | 161 | > 500 | 17.7 | 158 | 20.9 | 115 | 135
9 | O=C1/C(=C/c2ccc(Cl)cc2)CCc2ccccc21 | 48.2 | 69.1 | > 500 | 20.9 | 158 | 20.9 | 115 | 135

More lines, in order of falling IC50 (CCRF-CEM [1]), values ahead:

Row | IC50 (CCRF-CEM [1]) [µM] | IC50 (L1210 [4]) [µM] | IC50 (MOLT-4 [5]) [µM] | IC50 (P388 [8]) [µM] | SMILES | AP (MOLT-4 [2]) [µM] | AP (P388 [3]) [µM] | AP (CCRF-CEM [6]) [µM] | AP (L1210 [7]) [µM]
10 | 299 | 64.8 | > 500 | > 50 | O=C1/C(=C/c2ccc(Br)cc2)Cc2ccccc21 | 267 | 42.9 | 155 | 127
11 | 67.1 | 59.1 | > 500 | 38.6 | Cc1ccc(/C=C2\Cc3ccccc3C2=O)cc1 | 267 | 42.9 | 155 | 127
12 | 41 | 61.7 | 135 | > 50 | CN(C)c1ccc(/C=C2\Cc3ccccc3C2=O)cc1 | 267 | 42.9 | 155 | 127
13 | 32.6 | 45.8 | 226 | > 50 | COc1ccc(/C=C2\Cc3ccccc3C2=O)cc1 | 267 | 42.9 | 155 | 127
14 | 31.8 | 41.2 | 50.9 | 26.3 | O=C1/C(=C/c2cccc(Cl)c2)Cc2ccccc21 | 267 | 42.9 | 155 | 127
15 | 8.84 | 44 | 9.41 | 22.1 | COc1ccc(/C=C2\CCc3ccccc3C2=O)cc1 | 158 | 20.9 | 115 | 135
